Data taken from patent publication US20170051149A1, “AZOARYLS AS REVERSIBLY MODULATABLE TUBULIN INHIBITORS” (ECOLE NORMALE SUPERIEURE DE LYON, priority 2014, published 2017).
Values belong to the molecule of their own block, whether it stands above or below them.

What was measured:
[1] = thermal reversion halflife of spontaneous cis->trans isomerisation; format: physicochemical
Excerpt: Finally, trends in τ were ascertained by establishing the PSS at λstrong, then turning off the light source at time t0, and measuring A(λstrong, t) over time. Data were acquired for half an hour, or else the first three halflives (whichever was the shorter period), then fitted to the equation:
A(λstrong,t)=A(λstrong,dark)−[A(λstrong,dark)−A(λstrong,t0)]×e^−kt
This fit was used to return an in vitro halflife τ* for the cis->trans spontaneous thermal reversion isomerisation process, defined as τ=ln 2/k. It should be noted however, that azoaryl compounds' thermal reversion rates are known to depend strongly upon their microenvironment, such as pH and solvent/solvation effects^[7,38]. This was shown for compound (I.1), where a change of only 1.4 pH units gave a 25% change in τ*; note that different compounds are expected to respond very differently to changes in pH so no unifying trends are expected. Therefore the τ* acquired in vitro were considered appropriate only for qualitative intercomparison between samples (trend of τ* vs structure), rather than quantitative prediction of the τ values which might be experienced in cellulo or in vivo. Indeed, these in vitro τ* values appeared at least three times longer than what would have been expected based on in cellulo experiments where the pause time between activating pulses was varied.
Thermal reversion times were measured as described above. Those for selected compounds are presented below (Table 2).

HEK-293T cells = test: MTT assay, light-dependent cell proliferation; format: cell-based; details: 72 h
HEK-293 = test: cell cycle analysis by PI flow cytometry; format: cell-based; details: 30 h
Experimental: The effect of compound I.1 on cell cycle progression was assessed by flow cytometry. Briefly, following the application of compound I.1 and exposure to the indicated light regime, cells were harvested on ice and incubated in a hypotonic buffer [0.1% sodium citrate, 0.1% Triton X-100 and 50 μg/mL propidium iodide (PI)] for 30 min at 4° C. Following the PI staining cells were analysed by flow cytometry using FACSCalibur flow cytometer (Becton Dickinson, Heidelberg, Germany) and Cell Quest Pro Software (Becton Dickinson). Subsequently the cell cycle analysis was performed using the FlowJo software (Tree Star Inc., Ashland, Oreg., USA).

- τ, reversion time ([1]; PBS pH = 6, 20% MeCN): 8.4 min
- τ, reversion time ([1]; PBS pH = 7.4, 20% MeCN): 6.2 min
SMILES: COc1ccc(N=Nc2cc(OC)c(OC)c(OC)c2)cc1O [I.1, 2-methoxy-5-((3,4,5-trimethoxyphenyl)diazenyl)phenol]
- fold growth relative to cosolvent control (MTT) (HEK-293T cells; 100 nM, 390 nm, 0.35 s every 2 min): 1.31
- fold growth relative to cosolvent control (MTT) (HEK-293T cells; 100 nM, 390 nm, 0.35s then 490 nm, 3 s (rescue) every 2 min): 1.26
- fold growth relative to cosolvent control (MTT) (HEK-293T cells; 100 nM, 410 nm, 0.35 s every 2 min): 1.19
- fold growth relative to cosolvent control (MTT) (HEK-293T cells; 100 nM, 410 nm, 0.35 s then 505 nm, 3 s (rescue) every 2 min): 1.29
- fold growth relative to cosolvent control (MTT) (HEK-293T cells; 100 nM, 475 nm, 3 s every 2 min): 1.11
- fold growth relative to cosolvent control (MTT) (HEK-293T cells; 100 nM, 490 nm, 3 s every 2 min): 1.10
- fold growth relative to cosolvent control (MTT) (HEK-293T cells; 100 nM, 505 nm, 3 s every 2 min): 1.22
- fold growth relative to cosolvent control (MTT) (HEK-293T cells; 100 nM, 525 nm, 3 s every 2 min): 1.12
- fold growth relative to cosolvent control (MTT) (HEK-293T cells; 100 nM, Dark): 1.29
- fold growth relative to cosolvent control (MTT) (HEK-293T cells; 400 nM, 390 nm, 0.35 s every 2 min): 0.67
- fold growth relative to cosolvent control (MTT) (HEK-293T cells; 400 nM, 390 nm, 0.35s then 490 nm, 3 s (rescue) every 2 min): 0.69
- fold growth relative to cosolvent control (MTT) (HEK-293T cells; 400 nM, 410 nm, 0.35 s every 2 min): 0.70
- fold growth relative to cosolvent control (MTT) (HEK-293T cells; 400 nM, 410 nm, 0.35 s then 505 nm, 3 s (rescue) every 2 min): 0.86
- fold growth relative to cosolvent control (MTT) (HEK-293T cells; 400 nM, 475 nm, 3 s every 2 min): 0.55
- fold growth relative to cosolvent control (MTT) (HEK-293T cells; 400 nM, 490 nm, 3 s every 2 min): 0.69
- fold growth relative to cosolvent control (MTT) (HEK-293T cells; 400 nM, 505 nm, 3 s every 2 min): 0.87
- fold growth relative to cosolvent control (MTT) (HEK-293T cells; 400 nM, 525 nm, 3 s every 2 min): 0.82
- fold growth relative to cosolvent control (MTT) (HEK-293T cells; 400 nM, Dark): 0.87
- fold growth relative to cosolvent control (MTT) (HEK-293T cells; 800 nM, 390 nm, 0.35 s every 2 min): 0.38
- fold growth relative to cosolvent control (MTT) (HEK-293T cells; 800 nM, 390 nm, 0.35s then 490 nm, 3 s (rescue) every 2 min): 0.33
- fold growth relative to cosolvent control (MTT) (HEK-293T cells; 800 nM, 410 nm, 0.35 s every 2 min): 0.51
- fold growth relative to cosolvent control (MTT) (HEK-293T cells; 800 nM, 410 nm, 0.35 s then 505 nm, 3 s (rescue) every 2 min): 0.67
- fold growth relative to cosolvent control (MTT) (HEK-293T cells; 800 nM, 475 nm, 3 s every 2 min): 0.37
- fold growth relative to cosolvent control (MTT) (HEK-293T cells; 800 nM, 490 nm, 3 s every 2 min): 0.43
- fold growth relative to cosolvent control (MTT) (HEK-293T cells; 800 nM, 505 nm, 3 s every 2 min): 0.92
- fold growth relative to cosolvent control (MTT) (HEK-293T cells; 800 nM, 525 nm, 3 s every 2 min): 1.00
- fold growth relative to cosolvent control (MTT) (HEK-293T cells; 800 nM, Dark): 0.95
- fold growth relative to cosolvent control (MTT) (HEK-293T cells; 1.5 μM, 390 nm, 0.35 s every 2 min): 0.22
- fold growth relative to cosolvent control (MTT) (HEK-293T cells; 1.5 μM, 390 nm, 0.35s then 490 nm, 3 s (rescue) every 2 min): 0.18
- fold growth relative to cosolvent control (MTT) (HEK-293T cells; 1.5 μM, 410 nm, 0.35 s every 2 min): 0.25
- fold growth relative to cosolvent control (MTT) (HEK-293T cells; 1.5 μM, 410 nm, 0.35 s then 505 nm, 3 s (rescue) every 2 min): 0.25
- fold growth relative to cosolvent control (MTT) (HEK-293T cells; 1.5 μM, 475 nm, 3 s every 2 min): 0.19
- fold growth relative to cosolvent control (MTT) (HEK-293T cells; 1.5 μM, 490 nm, 3 s every 2 min): 0.19
- fold growth relative to cosolvent control (MTT) (HEK-293T cells; 1.5 μM, 505 nm, 3 s every 2 min): 0.42
- fold growth relative to cosolvent control (MTT) (HEK-293T cells; 1.5 μM, 525 nm, 3 s every 2 min): 0.66
- fold growth relative to cosolvent control (MTT) (HEK-293T cells; 1.5 μM, Dark): 0.71
- fold growth relative to cosolvent control (MTT) (HEK-293T cells; 3 μM, 390 nm, 0.35 s every 2 min): 0.17
- fold growth relative to cosolvent control (MTT) (HEK-293T cells; 3 μM, 390 nm, 0.35s then 490 nm, 3 s (rescue) every 2 min): 0.14
- fold growth relative to cosolvent control (MTT) (HEK-293T cells; 3 μM, 410 nm, 0.35 s every 2 min): 0.18
- fold growth relative to cosolvent control (MTT) (HEK-293T cells; 3 μM, 410 nm, 0.35 s then 505 nm, 3 s (rescue) every 2 min): 0.22
- fold growth relative to cosolvent control (MTT) (HEK-293T cells; 3 μM, 475 nm, 3 s every 2 min): 0.15
- fold growth relative to cosolvent control (MTT) (HEK-293T cells; 3 μM, 490 nm, 3 s every 2 min): 0.20
- fold growth relative to cosolvent control (MTT) (HEK-293T cells; 3 μM, 505 nm, 3 s every 2 min): 0.27
- fold growth relative to cosolvent control (MTT) (HEK-293T cells; 3 μM, 525 nm, 3 s every 2 min): 0.64
- fold growth relative to cosolvent control (MTT) (HEK-293T cells; 3 μM, Dark): 0.66
- fold growth relative to cosolvent control (MTT) (HEK-293T cells; 6 μM, 390 nm, 0.35 s every 2 min): 0.29
- fold growth relative to cosolvent control (MTT) (HEK-293T cells; 6 μM, 390 nm, 0.35s then 490 nm, 3 s (rescue) every 2 min): 0.18
- fold growth relative to cosolvent control (MTT) (HEK-293T cells; 6 μM, 410 nm, 0.35 s every 2 min): 0.23
- fold growth relative to cosolvent control (MTT) (HEK-293T cells; 6 μM, 410 nm, 0.35 s then 505 nm, 3 s (rescue) every 2 min): 0.30
- fold growth relative to cosolvent control (MTT) (HEK-293T cells; 6 μM, 475 nm, 3 s every 2 min): 0.21
- fold growth relative to cosolvent control (MTT) (HEK-293T cells; 6 μM, 490 nm, 3 s every 2 min): 0.34
- fold growth relative to cosolvent control (MTT) (HEK-293T cells; 6 μM, 505 nm, 3 s every 2 min): 0.27
- fold growth relative to cosolvent control (MTT) (HEK-293T cells; 6 μM, 525 nm, 3 s every 2 min): 0.39
- fold growth relative to cosolvent control (MTT) (HEK-293T cells; 6 μM, Dark): 0.80
- fold growth relative to cosolvent control (MTT) (HEK-293T cells; 15 μM, 390 nm, 0.35 s every 2 min): 0.28
- fold growth relative to cosolvent control (MTT) (HEK-293T cells; 15 μM, 390 nm, 0.35s then 490 nm, 3 s (rescue) every 2 min): 0.21
- fold growth relative to cosolvent control (MTT) (HEK-293T cells; 15 μM, 410 nm, 0.35 s every 2 min): 0.23
- fold growth relative to cosolvent control (MTT) (HEK-293T cells; 15 μM, 410 nm, 0.35 s then 505 nm, 3 s (rescue) every 2 min): 0.24
- fold growth relative to cosolvent control (MTT) (HEK-293T cells; 15 μM, 475 nm, 3 s every 2 min): 0.17
- fold growth relative to cosolvent control (MTT) (HEK-293T cells; 15 μM, 490 nm, 3 s every 2 min): 0.31
- fold growth relative to cosolvent control (MTT) (HEK-293T cells; 15 μM, 505 nm, 3 s every 2 min): 0.20
- fold growth relative to cosolvent control (MTT) (HEK-293T cells; 15 μM, 525 nm, 3 s every 2 min): 0.29
- fold growth relative to cosolvent control (MTT) (HEK-293T cells; 15 μM, Dark): 0.87
- mean % G2/M phase (HEK-293; 200 nM, 390 nm (1 s every 15 min)): 19.0%
- mean % G2/M phase (HEK-293; 200 nM, dark): 20.2%
- mean % G2/M phase (HEK-293; 600 nM, 390 nm (1 s every 15 min)): 19.4%
- mean % G2/M phase (HEK-293; 600 nM, dark): 21.2%
- mean % G2/M phase (HEK-293; 1.5 μM, 390 nm (1 s every 15 min)): 65.3%
- mean % G2/M phase (HEK-293; 1.5 μM, dark): 21.1%
- mean % G2/M phase (HEK-293; 5 μM, 390 nm (1 s every 15 min)): 71.5%
- mean % G2/M phase (HEK-293; 5 μM, dark): 24.6%

SMILES: CCN(CC)c1ccc2c(-c3ccccc3C(=O)N3CCN(CCCOc4c(N=Nc5cc(OC)c(OC)c(OC)c5)ccc(OC)c4C)CC3)c3ccc(=[N+](CC)CC)cc-3oc2c1.CCN(CC)c1ccc2c(-c3ccccc3C(=O)N3CCN(CCCOc4c(N=Nc5cc(OC)c(OC)c(OC)c5)ccc(OC)c4C)CC3)c3ccc(=[N+](CC)CC)cc-3oc2c1.O=C[O-].O=C[O-] [I.25, N-(6-(diethylamino)-9-(2-(4-(3-(3-methoxy-2-methyl-6-((3,4,5-trimethoxyphenyl)diazenyl)phenoxy)propyl)piperazine-1-carbonyl)phenyl)-3H-xanthen-3-ylidene)-N-ethylethanaminium bis(formate) salt]
- τ, reversion time ([1]; PBS pH = 7.4, 20% MeCN): 16.2 min
